According to patent publication US20260130879A1 (IMMUNIC AG, priority 2023, published 2026):

Experiments:
human Nurr1 = human Nurr1 (Homo sapiens, UniProt P43354); test: Hybrid Gal4-Nurr1 reporter gene assay in HEK293T cells
Procedure: Nurr1 modulation was determined in a Gal4 hybrid reporter gene assays in HEK293T cells (German Collection of Microorganisms and Cell Culture GmbH, DSMZ) using pFR-Luc (Stratagene, La Jolla, CA, USA; reporter), pRL-SV40 (Promega, Madison, WI, USA: internal control) and pFA-CMV-hNurr1-LBD, coding for the hinge region and ligand binding domain of the canonical isoform of human Nurr1. Cells were cultured in Dulbecco's modified Eagle's medium (DMEM), high glucose supplemented with 10% fetal calf serum (FCS), sodium pyruvate (1 mM), penicillin (100 U/mL), and streptomycin (100 μg/mL) at 37° C., and 5% CO2 and seeded in 96-well plates (3×10+ cells/well). […] Firefly luminescence was divided by Renilla luminescence and multiplied by 1000 resulting in relative light units (RLU) to normalize for transfection efficiency and cell growth. Fold activation was obtained by dividing the mean RLU of test compound by the mean RLU of the untreated control. All samples were tested in at least three biologically independent experiments in duplicates. For dose-response curve fitting and calculation of EC50 values, the equation “[Agonist] versus response (three parameters)” was used in GraphPad Prism (version 7.00, GraphPad Software, La Jolla, CA, USA).
Similarly as described in Part A, the Nurr1 modulation was determined in a Gal4 hybrid reporter gene assay at a fixed concentration of 3 μM.

hDHODH = target: T1, hDHODH (Homo sapiens, UniProt Q02127); test: in vitro inhibition of hDHODH; format: biochemical
T1 construct: measured using an N-terminally truncated recombinant hDHODH enzyme
Procedure: The in vitro inhibition of hDHODH was measured using an N-terminally truncated recombinant hDHODH enzyme. Briefly, the hDHODH concentration was adjusted in a way that an average slope of approximately 0.2 AU/min served as the positive control (e.g., without inhibitor). The assay mixture contained 60 μM 2,6-dichloroindophenol, 50 μM decylubiquinone and 100 μM dihydroorotate. The hDHODH enzyme with or without at least six different concentrations of the compounds was added and measurements were performed in 50 mM TrisHCl, 150 mM KCl and 0.1% Triton X-100 at pH 8.0 and at 30° C. The reaction was started by adding dihydroorotate and measuring the absorption at 600 nm for 2 min. For the determination of the IC50 values, each data point was recorded in triplicate.

T1 sequence (Q02127 29-395): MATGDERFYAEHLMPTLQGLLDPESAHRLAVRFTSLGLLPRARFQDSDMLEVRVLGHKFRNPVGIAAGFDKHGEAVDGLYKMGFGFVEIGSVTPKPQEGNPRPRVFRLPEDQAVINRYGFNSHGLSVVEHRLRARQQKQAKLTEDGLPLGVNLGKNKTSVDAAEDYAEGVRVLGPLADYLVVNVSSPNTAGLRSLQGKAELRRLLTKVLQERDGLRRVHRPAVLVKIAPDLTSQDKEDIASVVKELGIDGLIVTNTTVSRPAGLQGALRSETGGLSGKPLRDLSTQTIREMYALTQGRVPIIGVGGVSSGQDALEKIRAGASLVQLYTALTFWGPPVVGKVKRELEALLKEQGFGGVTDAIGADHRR
Chain of human Nurr1 (P43354 360-595 limits assumed): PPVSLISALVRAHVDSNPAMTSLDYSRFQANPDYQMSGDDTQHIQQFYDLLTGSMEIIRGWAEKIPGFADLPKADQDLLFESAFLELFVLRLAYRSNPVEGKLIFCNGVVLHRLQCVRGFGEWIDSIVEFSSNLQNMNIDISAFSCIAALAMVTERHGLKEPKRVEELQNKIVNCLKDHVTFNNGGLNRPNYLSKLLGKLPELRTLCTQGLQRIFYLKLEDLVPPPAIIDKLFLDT

| Compound | EC50 (human Nurr1) | Nurr1 agonism max. fold activation (range) (human Nurr1) | IC50 (hDHODH) | Fold Activation @ 3 μM (human Nurr1) | Fold Activation @ 0.3 μM (human Nurr1) |
| --- | --- | --- | --- | --- | --- |
| C#CCOc1cccc(-c2ccc(NC(=O)c3cscc3C(=O)NCC)c(F)c2)c1 [6/58] | 1000 to 10000 nM | + (+: ≥1.3-fold to <2-fold) | > 10 µM | – | – |
| [2H]C([2H])([2H])Oc1cccc(-c2c(F)c(F)c(NC(=O)c3ccsc3C(=O)O)c(F)c2F)c1 [6/2] | – | – | – | ++ (++: ≥2-fold to <3-fold) | – |
| [2H]C([2H])([2H])Oc1cccc(-c2c(F)c(F)c(NC(=O)c3cscc3C(=O)O)c(F)c2F)c1 [6/3] | – | – | – | ++ (++: ≥2-fold to <3-fold) | – |
| [2H]C([2H])([2H])Oc1cccc(-c2ccc(NC(=O)C3=C(C(=O)O)CCC3)c3cnccc23)c1 [2/13] | 1000 to 10000 nM | +++ (+++: ≥3-fold) | – | – | – |
| [2H]C([2H])([2H])Oc1cccc(-c2cc(F)c(NC(=O)C3=C(C(=O)NOCC)CCC3)c(F)c2)c1 [2/18] | 1000 to 10000 nM | ++ (++: ≥2-fold to <3-fold) | – | – | – |
| [2H]C([2H])([2H])Oc1cccc(-c2cc(F)c(NC(=O)C3=C(C(=O)NS(=O)(=O)C4(C)CC4)CCC3)c(F)c2)c1 [2/21] | 1000 to 10000 nM | ++ (++: ≥2-fold to <3-fold) | – | – | – |
| [2H]C([2H])([2H])Oc1cccc(-c2cc(F)c(NC(=O)C3=C(C(=O)NS(=O)(=O)C(F)F)CCC3)c(F)c2)c1 [2/22] | 1000 to 10000 nM | ++ (++: ≥2-fold to <3-fold) | – | – | – |
| [2H]C([2H])([2H])Oc1cccc(-c2c(F)c(F)c(NC(=O)c3ccsc3C(=O)NCC)c(F)c2F)c1 [6/15] | 100 to 1000 nM | + (+: ≥1.3-fold to <2-fold) | > 10 µM | – | – |
| [2H]C([2H])([2H])Oc1cccc(-c2ccc(NC(=O)c3cscc3C(N)=O)cc2)c1 [6/53] | 100 to 1000 nM | + (+: ≥1.3-fold to <2-fold) | > 10 µM | – | – |
| [2H]C([2H])([2H])Oc1cccc(-c2c(F)c(F)c(NC(=O)c3c(C(=O)O)sc(C)c3C)c(F)c2F)c1 [6/13] | < 100 nM | ++ (++: ≥2-fold to <3-fold) | < 0.1 µM | – | – |
| [2H]c1c([2H])c([2H])c(-c2c(F)c(F)c(NC(=O)c3ccsc3C(N)=O)c(F)c2F)c([2H])c1[2H] [6/45] | 100 to 1000 nM | – | 1 to 10 µM | – | – |
| [2H]C([2H])([2H])Oc1cccc(-c2c(F)c(F)c(NC(=O)c3ccsc3C(=O)NCC(F)(F)F)c(F)c2F)c1 [6/44] | – | – | – | + (+: ≥1.3-fold to <2-fold) | – |
| [2H]C([2H])([2H])Oc1cccc(-c2c(F)c(F)c(NC(=O)C3=C(C(=O)O)CCC3)c(F)c2F)c1 [2/10] | < 100 nM | + (+: ≥1.3-fold to <2-fold) | – | – | – |
| [2H]C([2H])([2H])Oc1cccc(-c2cc(F)c(NC(=O)C3=C(C(=O)NOCCF)CCC3)c(F)c2)c1 [2/23] | 100 to 1000 nM | + (+: ≥1.3-fold to <2-fold) | – | – | – |
| [2H]C([2H])([2H])Oc1cccc(-c2cc(F)c(NC(=O)C3=C(/C(N)=N/O)CCC3)c(F)c2)c1 [2/20] | 100 to 1000 nM | ++ (++: ≥2-fold to <3-fold) | – | – | – |
| [2H]C(F)(F)Oc1cccc(-c2ccc(NC(=O)C3=C(C(=O)O)CCC3)c(F)c2)c1 [2/2] | 100 to 1000 nM | +++ (+++: ≥3-fold) | 1 to 10 µM | – | – |
| [2H]C([2H])([2H])Oc1cccc(-c2c(F)c(F)c(NC(=O)c3ccsc3C(N)=O)c(F)c2F)c1 [6/14] | 100 to 1000 nM | + (+: ≥1.3-fold to <2-fold) | 1 to 10 µM | – | – |
| [2H]C([2H])([2H])Oc1cccc(-c2cc(F)c(NC(=O)C3=C(C(=O)NOCCO)CCC3)c(F)c2)c1 [2/24] | 1000 to 10000 nM | + (+: ≥1.3-fold to <2-fold) | – | – | – |
| [2H]C([2H])([2H])Oc1cccc(-c2ccc(N(C)C(=O)C3=C(C(=O)O)CCC3)c(F)c2)c1 [reference compound] | > 10000 nM | – | – | – | – |
| [2H]C([2H])([2H])Oc1cccc(-c2c(F)c(F)c(NC(=O)C3=C(C(=O)O)CC(F)(F)C3)c(F)c2F)c1 [6/1] | – | – | – | ++ (++: ≥2-fold to <3-fold) | – |
| [2H]C([2H])([2H])Oc1cccc(-c2ccc(NC(=O)c3cscc3C(=O)O)cc2)c1 [6/50] | < 100 nM | ++ (++: ≥2-fold to <3-fold) | 0.1 to 1 µM | – | – |
| C#CCOc1cccc(-c2ccc(NC(=O)c3cscc3C(=O)NCC)cc2)c1 [6/57] | 1000 to 10000 nM | + (+: ≥1.3-fold to <2-fold) | > 10 µM | – | – |

| Compound | EC50 (human Nurr1) | Nurr1 agonism max. fold activation (range) (human Nurr1) | IC50 (hDHODH) | Fold Activation @ 3 μM (human Nurr1) | Fold Activation @ 0.3 μM (human Nurr1) |
| --- | --- | --- | --- | --- | --- |
| [2H]C([2H])([2H])Oc1cccc(C23CCC(NC(=O)C4=C(C(=O)O)CCC4)(CC2)CC3)c1 [reference compound] | > 10000 nM | – | > 50 µM | – | – |
| C#CCOc1cccc(-c2c(F)c(F)c(NC(=O)c3ccsc3C(=O)O)c(F)c2F)c1 [6/17] | – | – | – | +++ (+++: ≥3-fold) | – |
| COc1cccc(-c2ccc(NC(=O)C3=C(C(=O)NO)CCC3)c(F)c2)c1 [6/10] | – | – | – | ++ (++: ≥2-fold to <3-fold) | – |
| [2H]C([2H])([2H])Oc1cccc(-c2c(F)cc(NC(=O)c3ccsc3C(=O)O)cc2F)c1 [6/8] | – | – | – | +++ (+++: ≥3-fold) | – |
| C#CCOc1cccc(-c2ccc(NC(=O)c3cscc3C(=O)O)c(F)c2)c1 [6/52] | < 100 nM | ++ (++: ≥2-fold to <3-fold) | 0.1 to 1 µM | – | – |
| [2H]C([2H])([2H])Oc1cccc(-c2c(F)c(F)c(NC(=O)c3ccccc3C(=O)O)c(F)c2F)c1 [6/20] | < 100 nM | – | < 0.1 µM | – | – |
| [2H]C([2H])([2H])Oc1cccc(-c2c(F)c(F)c(NC(=O)C3=C(C(=O)N(C)C)CC(F)(F)C3)c(F)c2F)c1 [6/27] | 1000 to 10000 nM | + (+: ≥1.3-fold to <2-fold) | 1 to 10 µM | – | – |
| [2H]c1cc([2H])c(-c2c(F)c(F)c(NC(=O)c3ccsc3C(=O)O)c(F)c2F)c([2H])c1OC(F)(F)F [2/25] | – | – | – | ++ (++: ≥2-fold to <3-fold) | +++ (+++: ≥3-fold) |
| [2H]C([2H])([2H])Oc1cccc(-c2cc(F)c(NC(=O)c3ccsc3C(=O)O)c(F)c2)c1 [2/26] | – | – | – | + (+: ≥1.3-fold to <2-fold) | – |
| [2H]c1c([2H])c([2H])c(-c2c(F)c(F)c(NC(=O)C3=C(C(N)=O)CC(F)(F)C3)c(F)c2F)c([2H])c1[2H] [6/46] | 100 to 1000 nM | – | 1 to 10 µM | – | – |
| C#CCOc1cccc(-c2ccc(NC(=O)c3cscc3C(N)=O)cc2)c1 [6/54] | 1000 to 10000 nM | + (+: ≥1.3-fold to <2-fold) | > 10 µM | – | – |
| C#CCOc1cccc(-c2ccc(NC(=O)c3cscc3C(=O)O)cc2)c1 [6/51] | 100 to 1000 nM | +++ (+++: ≥3-fold) | 1 to 10 µM | – | – |
| [2H]C([2H])([2H])Oc1cccc(-c2ccc(NC(=O)c3cscc3C(=O)NCC)cc2)c1 [6/56] | 1000 to 10000 nM | +++ (+++: ≥3-fold) | > 10 µM | – | – |
| [2H]C([2H])([2H])Oc1cccc(-c2cc(F)c(NC(=O)C3=C(C(=O)O)CCC3)c(OC([2H])([2H])[2H])c2)c1 [2/31] | 100 to 1000 nM | + (+: ≥1.3-fold to <2-fold) | – | – | – |
| [2H]C([2H])([2H])Oc1ccccc1-c1c(F)c(F)c(NC(=O)C2=C(C(=O)O)CCC2)c(F)c1F [2/27] | – | – | – | +++ (+++: ≥3-fold) | – |
| [2H]C([2H])([2H])Oc1cccc(-c2c(F)c(F)c(NC(=O)c3ccsc3C(=O)NCC(F)F)c(F)c2F)c1 [6/41] | – | – | – | – | + (+: ≥1.3-fold to <2-fold) |
| O=C(O)C1=C(C(=O)Nc2c(F)cc(-c3cccc4c3OCO4)cc2F)CCC1 [reference compound] | > 10000 nM | – | – | – | – |
| [2H]C([2H])([2H])Oc1ccccc1-c1c(F)c(F)c(NC(=O)C2=C(C(=O)O)CSC2)c(F)c1F [6/7] | – | – | – | ++ (++: ≥2-fold to <3-fold) | – |
| C#CCOc1cccc(-c2c(F)c(F)c(NC(=O)c3ccsc3C(=O)NC)c(F)c2F)c1 [6/18] | – | – | – | + (+: ≥1.3-fold to <2-fold) | – |
| [2H]c1cc([2H])c(-c2ccc(NC(=O)C3=C(C(=O)O)CCC3)c(F)c2)c([2H])c1O [2/4] | 100 to 1000 nM | + (+: ≥1.3-fold to <2-fold) | – | – | – |
| [2H]C([2H])([2H])Oc1cccc(-c2cc(F)c(NC(=O)C3=C(C(=O)NOC)CCC3)c(C#N)c2)c1 [2/29] | – | – | – | + (+: ≥1.3-fold to <2-fold) | – |
| [N-]=[N+]=NCCOc1cccc(-c2ccc(NC(=O)C3=C(C(=O)O)CCC3)c(F)c2)c1 [4/1] | < 100 nM | +++ (+++: ≥3-fold) | – | – | – |
